This note sets out measurements from PMC11180795 (Frontiers in Pharmacology, 2024).

Assay [1] concerns the target T1, 15-lipoxygenase from Glycine max (Glycine max, UniProt P08170).
T1 construct: purchased Sigma (Germany)
T1 sequence (P08170 1-839): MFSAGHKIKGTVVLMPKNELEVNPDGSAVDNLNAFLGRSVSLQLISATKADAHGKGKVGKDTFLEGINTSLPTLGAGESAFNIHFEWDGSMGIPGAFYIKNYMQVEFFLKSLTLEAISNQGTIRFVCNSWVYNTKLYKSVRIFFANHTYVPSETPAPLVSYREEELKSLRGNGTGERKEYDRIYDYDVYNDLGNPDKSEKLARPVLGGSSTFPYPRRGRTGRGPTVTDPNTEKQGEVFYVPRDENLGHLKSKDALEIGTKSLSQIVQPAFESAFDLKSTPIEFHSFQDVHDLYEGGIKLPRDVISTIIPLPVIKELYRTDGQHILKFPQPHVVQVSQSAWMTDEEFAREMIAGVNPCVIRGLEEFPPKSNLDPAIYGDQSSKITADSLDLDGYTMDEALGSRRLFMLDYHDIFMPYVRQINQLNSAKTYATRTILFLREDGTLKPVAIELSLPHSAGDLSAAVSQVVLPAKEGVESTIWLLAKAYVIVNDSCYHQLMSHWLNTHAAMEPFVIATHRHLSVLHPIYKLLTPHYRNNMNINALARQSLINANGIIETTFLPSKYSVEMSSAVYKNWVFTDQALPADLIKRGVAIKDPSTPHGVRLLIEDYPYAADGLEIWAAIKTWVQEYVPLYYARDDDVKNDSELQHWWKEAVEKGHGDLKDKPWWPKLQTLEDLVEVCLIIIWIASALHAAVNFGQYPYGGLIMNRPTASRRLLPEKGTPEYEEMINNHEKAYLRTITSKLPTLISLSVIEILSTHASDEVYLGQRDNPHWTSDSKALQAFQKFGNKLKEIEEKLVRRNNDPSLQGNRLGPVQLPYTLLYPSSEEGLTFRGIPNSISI
The assay can be described thus: Soybean 15-LOX inhibition assay (ferrous oxidation-xylenol orange). It counts as biochemical. The following applies: linoleic acid 140 µM, pH 7.4, 25°C. The protocol: The assay was performed according to a previously described procedure ([Pinto et al., 2007]) with slight modifications. The assay is based on measuring the formation of the complex Fe3^+/xylenol orange in a spectrophotometer at 560 nm. 15-LOX from G. max was incubated with compounds or standard inhibitors at 25°C for 5 min. The concentration range of the samples were from 250 μM to 1.95 µM. Then linoleic acid (final concentration, 140 µM) in Tris-HCl buffer (50 mM, pH 7.4) was added and the mixture was incubated at 25°C for 20 min in the dark. The assay was terminated by the addition of 100 µL of FOX reagent consisting of sulfuric acid (30 mM), xylenol orange (100 µM), iron (II) sulfate (100 µM) in methanol/water (9:1). For the control, only LOX solution and buffer were pipetted into the wells. Blanks (background) contained the enzyme LOX during incubation, but the substrate (linoleic acid) was added after the FOX reagent. […] The LOX inhibitory activity was evaluated by calculating the percentage of the inhibition of hydroperoxide production from the changes in absorbance values at 560 nm after 30 min at 25°C. % inhibition = [(Acontrol – Ablank) – (Asample – Ablank)/(Acontrol – Ablank)] x100. Where Acontrol is the absorbance of control well, Ablank is the absorbance of blank well and Asample is the absorbance of sample well.

A further assay relates to TNF-α. Put plainly: Th1/Th2 cytokine measurement (Cytometric Bead Array) in LPS-stimulated Raw 264.7 cells, TNF-α. It is filed as cell-based, Murine. The note with it: compound at 20 µM; for effect on TNF-α production (in words): vs stimulated and untreated control. The protocol:
(§1) Raw 264.7 cells were seeded at 2 × 10^5 cells/mL in a 48-well microplate and allowed to adhere for 24 h, then treated with LPS 0.1 μg/mL and with compounds (1), (5) and (6) at 20 µM. Untreated cells and indomethacin (10 µM) were used as controls. After 24 h of incubation, the supernatant was collected and the amount of pro-inflammatory Th1 cytokines (IFN-γ, TNF-α, and IL-2) and anti-inflammatory Th2 cytokines (IL-4, IL-6, and IL-10) released measured. The experiment was performed according to the manufacturer’s instructions using BD™ Cytometric Bead Array (CBA) […] Th1/Th2 Cytokine Kit (BD-Biosciences), and data were acquired on a BD LSR Fortessa™ cell analyzer flow cytometer.

The subject of another assay is IL-4. The assay can be described thus: Th1/Th2 cytokine measurement (Cytometric Bead Array) in LPS-stimulated Raw 264.7 cells, IL-4. It counts as cell-based, Murine. The note with it: compound at 20 µM, LPS 0.1 μg/mL, 24 h; stimulated untreated control 1.01 pg/mL. The protocol: as §1

Take `CC(C)=CCc1c2c(c3oc4c(O)cccc4c(=O)c3c1O)C=CC(C)(C)O2` [Compound 1, Ananixanthone]: it took 63.9 µM to reach half-maximal inhibition in assay [1] (IC50). Moreover, the TNF-α level in the assay with TNF-α (LPS 0.1 μg/mL, 24 h, stimulated untreated control 4356.86 pg/mL) amounted to 3854.61 pg/mL. In addition, the IL-4 level in the assay on IL-4 was found to be 1.23 pg/mL.

With `CC(C)=CCC/C(C)=C/C[C@]12C[C@@H](CC=C(C)C)C(C)(C)[C@](C/C=C(\C)CCC=C(C)C)(C(=O)C(C(=O)c3ccc(O)c(O)c3)=C1O)C2=O` [Compound 5, Guttiferone O], the IC50 (usually the concentration at which inhibition is half-maximal) in assay [1] is 45 µM. Also, in the assay with TNF-α, the “effect on TNF-α production (in words)” value was “significantly reduces”. This compound also registered an IL-4 level in the assay on IL-4 of 2.25 pg/mL.

Compound `CC(C)=CCC/C(C)=C/C[C@]12C[C@@H](CC=C(C)C)C(C)(C)[C@](CC=C(C)C)(C(=O)C(C(=O)c3ccc(O)c(O)c3)=C1O)C2=O` [Compound 6, Guttiferone M] displayed an IC50 in assay [1] of 53 µM. Further, the “effect on TNF-α production (in words)” value in the assay with TNF-α is “moderate decrease”. The IL-4 level with IL-4 is listed as 0.94 pg/mL.
